Laboratory results taken from patent US20050124696A1, “Pharmaceutical compositions” (priority 2001, published 2005).

How the values were obtained:
HSF = assay: hsp70 promoter luciferase reporter assay in HeLa cell clone 13B (HSF activation); format: cell-based, human; conditions: HeLa clone 13B, 8 h treatment
Protocol: (§1) Method: HeLa cell clone 13B, stably transfected with a luciferase reporter plasmid controlled by the human hsp70 promoter, and HeLa κB-transformed cells, stably transfected with a luciferase reporter plasmid controlled by a synthetic NF-κB-STM construct, were maintained in DMEM medium supplemented with 10% FBS, L-glutamine (2 mM) and G418 (250 μg/ml) at 37° C. in a 5% CO2 humidified atmosphere.
(§2) Cells were seeded at a density of 4×10^4 cells/well in 96-well plates. After 18-20 h, the medium was removed and cells were treated for 8 h with the test compounds (100 μl) at the appropriate dilutions in serum-free medium. For the NF-κB-dependent reporter gene assay, cells were stimulated with TPA (25 ng/ml) 2h after exposure to the compounds.
(§3) After incubation, the medium was removed and cells were lysed in 10 μl of lysis buffer. The luciferase activity was determined by adding 100 μl of substrate and measuring the release of light using a Victor 1420 microplate reader (Wallac, Finland).
The AC200/μM for HSF is the concentration at which the tested compound doubled the HSF activity in this assay. The IC50/μM for NF-κB is the concentration at which the tested compound halved the NF-κB activity in this assay.

NF-κB [1] = assay: NF-κB-dependent luciferase reporter gene assay in HeLa κB-transformed cells, TPA stimulated; format: cell-based; conditions: Homo sapiens; HeLa NF-κB-STM luciferase, 8 h treatment, TPA 25 ng/ml 2 h after exposure; read-out: NF-κB; IC50 (concentration at which the tested compound halved the NF-κB activity)
Protocol: as §1, §2, §3
The fragment Kpn I-BamH I from the pGL3 basic vector containing the luciferase gene (PROMEGA) was inserted in the pcDNA3 vector (INVITROGEN) digested with Bgl II-KpnI. (This digestion removes the CMV-promoter from pcDNA3.) The resulting new vector was digested with Kpn I-Hind III and a promoter containing a ‘5×NF-κB binding sites—TATA box’ sequence was inserted upstream of the luciferase gene. […]

in vitro = format: cell-based; conditions: human
Protocol: HeLa cells were plated in 96-well microtiter plates in 100 μl culture medium (4×10^4/well). After 20 hours, the cells were exposed to the test compounds at different dilutions and incubated for the next 8 h at 37° C. in a 5% CO2 humidified atmosphere. After 6 h incubation, the Alamar Blue was added in an amount equal to 10% of the culture volume (10 μl). Two hours after the addition of the Alamar Blue, the fluorescence was measured using a Victor 1420 microplate reader.
The LC50/μM is the concentration at which the tested compound killed half the cells in this assay.

Sendai virus = assay: Replication of Sendai virus in 37RC cells (HAU titration of virus yield); format: cell-based; conditions: Respirovirus muris, Sendai virus yield at 24 hours after infection, read-out: ID50 (50% inhibitory dose/concentration)
37RC cells = assay: Neutral Red cell viability assay; format: cell-based, monkey; conditions: uninfected 37RC cells, 24 h
Protocol: Cell viability was determined using the Neutral Red assay. 37RC cells were seeded at density of 6×10^4 cells/well in 24-well plates and incubated for 24 h. Confluent 37RC monolayers were treated with the test compounds at different dilutions for 24 h at 37° C. After incubation, the medium was removed and the cells were incubated with RPM1 medium containing 40 μg/ml Neutral Red dye (500 μl/well). After 2 h at 37° C., the monolayers were washed with phosphate-buffered saline (PBS) and then with a solution containing 1% CaCl2 and 0.5% formaldehyde. After washing, a solution containing 1% acetic acid/50% ethanol was added to the monolayers (250 μl/well). After 10 min at room temperature, the absorbance was determined with a microplate reader (Victor 1420, Wallac) at 540 nm.

HSF1 = conditions: cited from earlier work
NF-κB [2] = conditions: chemical or physiological inducers; 'at the same concentration'; cited from earlier work
NF-κB [3] = assay: Luciferase activity of resistant HeLa NF-κB-LUC cell pool after stimulation; format: cell-based, human; conditions: quadruplicate samples, control 1369±149
From the text: The fragment Kpn I-BamH I from the pGL3 basic vector containing the luciferase gene (PROMEGA) was inserted in the pcDNA3 vector (INVITROGEN) digested with Bgl II-KpnI. (This digestion removes the CMV-promoter from pcDNA3.) The resulting new vector was digested with Kpn I-Hind III and a promoter containing a ‘5×NF-κB binding sites—TATA box’ sequence was inserted upstream of the luciferase gene. This vector has been named STM.
To obtain stable HeLa cell lines expressing the luciferase gene under the control of NF-κB, HeLa cells were transfected (using lipofectamine plus GIBCO) with the STM-Pvu I linearized vector, and selected for 20 days with G418 (800 μg/ml). After selection, the resistant HeLa cell pool was controlled (in quadruplicate samples) for luciferase activity after stimulation with TNFα, IL-1 and TPA. The respective luciferase activities were: • 1) Control: 1369±149 • 2) TNFα: 6111±1231 • 3) IL-1: 11814±1151 • 4) TPA: 7181±444 Clones were selected.

uninfected cells = assay: Toxicity to uninfected cells compared with the anti-viral concentration; format: cell-based

## COC(=O)C(CSC1CC(=O)CC(O[Si](C)(C)C(C)(C)C)C1)NC(=O)OC(C)(C)C (stereo not drawn) [CTM-78, 2-tert-Butoxycarbonylamino-3-[3-(tert-butyl-dimethyl-silanyloxy)-5-oxo-cyclohexylsulfanyl]-propionic acid methyl ester]
HSF
  HSF; AC200 (concentration at which the tested compound doubled the HSF activity): 45 µM
NF-κB [1]
  IC50: 22 µM
In vitro
  CC50 at 8 h: > 800 µM
Sendai virus
  IC50: 3000 nM
37RC cells
  LD50 (50% lethal dose/concentration): 18.6 µM

## O=C1C=CCC1 [cyclopent-2-en-1-one]
HSF1
  concentration shown to activate HSF1 and trigger synthesis of HSP70: 125 to 500 µM
NF-κB [2]
  concentration shown to block NF-κB activation: 125 to 500 µM

## CCCCCCCCCCCCCC(=O)O[C@@H]1[C@@H](C)[C@@]2(O)[C@@H](C=C(CO)C[C@]3(O)C(=O)C(C)=C[C@@H]23)[C@@H]2C(C)(C)[C@]12OC(C)=O [TPA, 12-O-tetradecanoylphorbol-13-acetate]
NF-κB [3]
  luciferase activity after stimulation: 7181±444

## TNFα
NF-κB [3]
  luciferase activity after stimulation: 6111±1231

## COC(=O)[C@H](CS[C@H]1CC(=O)CC[C@@H]1O[Si](C)(C)C(C)(C)C)NC(=O)OC(C)(C)C [CTM-68, 2-tert-Butoxycarbonylamino-3-[2-(tert-butyl-dimethyl-silanyloxy)-5-oxo-cyclohexylsulfanyl]-propionic acid methyl ester]
HSF
  HSF; AC200 (concentration at which the tested compound doubled the HSF activity): 98 µM
NF-κB [1]
  IC50: 17 µM
In vitro
  CC50 at 8 h: > 800 µM
Sendai virus
  IC50: 1000 nM
37RC cells
  LD50 (50% lethal dose/concentration): 9.8 µM

## CC(C)(C)[Si](C)(C)OC1CC=CC(=O)C1 (stereo not drawn) [Compound B, 5-tert-butyldimethylsilyloxy-cyclohex-2-en-1-one]
Sendai virus
  IC50: 400 nM
Uninfected cells
  concentration of anti-viral effect relative to the concentration toxic to uninfected cells: below that at which they were toxic to uninfected cells

## CC(C)(C)[Si](C)(C)OC1C=CC(=O)CC1 (stereo not drawn) [Compound A, 4-tert-butyldimethylsilyloxy-cyclohex-2-en-1-one]
Sendai virus
  IC50: 1000 nM
Uninfected cells
  concentration of anti-viral effect relative to the concentration toxic to uninfected cells: below that at which they were toxic to uninfected cells
